50 molecules from US8501713B2, “Drug combinations for the treatment of duchenne muscular dystrophy” (Summit Corporation PLC, priority 2007, dated 2013) can be followed below.

The assay relates to Utrophin A promoter linked to a luciferase reporter gene. The assay can be described thus: Luciferase reporter assay (murine H2K cells). It counts as cell-based. As to conditions: Mus musculus, H2K mdx, luciferase level relative to control; H2K/mdx/Utro A reporter cells; compound 10 μM final concentration; read-out: Activity. The method, boiled down:
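Immortalized mdx mouse H2K myoblasts stably carrying a ~5 kb utrophin A promoter–luciferase construct, kept at 33° C, 10% CO2. After 24 hrs plating, compound added at 10 μM final for 48 hrs; luciferase light output read after in-situ lysis.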

Where only a bound is given, the exact number is not on record here.

As to `Cc1cc2nc(-c3ccc(N)cc3O)[nH]c2cc1C` [Example 104, 5-amino-2-(5,6-dimethyl-1H-benzo[d]imidazol-2-yl)phenol], the activity at 10 µM lay in the range of 201 to 300%.

As for `Cc1cc(-c2nc3ccccc3[nH]2)ccc1[N+](=O)[O-]` [Example 105, 2-(3-methyl-4-nitrophenyl)-1H-benzo[d]imidazole], the activity at 10 µM is over 401%.

With `O=[N+]([O-])c1ccc2nc(-c3ccccc3O)[nH]c2c1` [Example 106, 2-(6-nitro-1H-benzo[d]imidazol-2-yl)phenol], the activity at 10 µM was under 200%.

With `O=C(O)c1ccc2oc(-c3ccccc3)nc2c1` [Example 107, 2-phenylbenzo[d]oxazole-5-carboxylic acid], the activity at 10 µM lay within 301 to 400%.

As for `CCCc1ccc(-c2nc3cc(C(=O)O)ccc3o2)cc1` [Example 108, 2-(4-propylphenyl)benzo[d]oxazole-5-carboxylic acid], the activity at 10 µM was under 200%.

In the case of `CCCc1ccc(-c2nc3ccc(C(=O)O)cc3o2)cc1` [Example 109, 2-(4-propylphenyl)benzo[d]oxazole-6-carboxylic acid], the activity at 10 µM is under 200%.

On to `CCCc1ccc(-c2nc3ccc(-c4nc5ccc(C(=O)O)cc5o4)cc3o2)cc1` [Example 110, 2′-(4-propylphenyl)-2,6′-bibenzo[d]oxazole-6-carboxylic acid], for which the activity at 10 µM was under 200%.

For the molecule `Clc1ccc2oc(-c3ccccc3)nc2c1` [Example 111, 5-chloro-2-phenylbenzo[d]oxazole], the activity at 10 µM lay within 201 to 300%.

Regarding `Clc1ccc2nc(-c3ccccc3)oc2c1` [Example 112, 6-chloro-2-phenylbenzo[d]oxazole], the activity at 10 µM was under 200%.

Regarding `Cc1ccc(-c2nc3cc(NC(=O)c4cccnc4)ccc3o2)cc1` [Example 113, N-(2-p-tolylbenzo[d]oxazol-5-yl)nicotinamide], the activity at 10 µM is under 200%.

`Cc1ccc(-c2nc3cc(NC(=O)c4ccncc4)ccc3o2)cc1` [Example 114, N-(2-p-tolylbenzo[d]oxazol-5-yl)isonicotinamide]: the activity at 10 µM is under 200%.

Regarding `CCC(=O)Nc1ccc2oc(-c3ccc(C)cc3)nc2c1` [Example 115, N-(2-p-tolylbenzo[d]oxazol-5-yl)propionamide], the activity at 10 µM is over 401%.

In the case of `CCCC(=O)Nc1ccc2oc(-c3ccc(C)cc3)nc2c1` [Example 116, N-(2-p-tolylbenzo[d]oxazol-5-yl)butyramide], the activity at 10 µM is over 401%.

For `CCCCC(=O)Nc1ccc2oc(-c3ccc(C)cc3)nc2c1` [Example 117, N-(2-p-tolylbenzo[d]oxazol-5-yl)pentanamide], the activity at 10 µM lay within 301 to 400%.

Take `Cc1ccc(-c2nc3cc(NC(=O)C(C)C)ccc3o2)cc1` [Example 118, N-(2-p-tolylbenzo[d]oxazol-5-yl)isobutyramide]: the activity at 10 µM was 201 to 300%.

For the molecule `Cc1ccc(-c2nc3cc(NC(=O)c4ccco4)ccc3o2)cc1` [Example 119, N-(2-p-tolylbenzo[d]oxazol-5-yl)furan-2-carboxamide], the activity at 10 µM is under 200%.

With `Cc1ccc(-c2nc3cc(NC(=O)c4cccs4)ccc3o2)cc1` [Example 120, N-(2-p-tolylbenzo[d]oxazol-5-yl)thiophene-2-carboxamide], the activity at 10 µM lay in the range of 201 to 300%.

On to `O=C(Nc1ccc2oc(-c3ccc(C(F)(F)F)cc3)nc2c1)c1cccnc1` [Example 121, N-(2-(4-(trifluoromethyl)phenyl)benzo[d]oxazol-5-yl)nicotinamide], for which the activity at 10 µM was under 200%.

As to `O=C(Nc1ccc2oc(-c3ccc(C(F)(F)F)cc3)nc2c1)c1ccncc1` [Example 122, N-(2-(4-(trifluoromethyl)phenyl)benzo[d]oxazol-5-yl)isonicotinamide], the activity at 10 µM is under 200%.

Consider `CC(=O)Nc1ccc2oc(-c3ccc(C(F)(F)F)cc3)nc2c1` [Example 123, N-(2-(4-(trifluoromethyl)phenyl)benzo[d]oxazol-5-yl)acetamide], for which the activity at 10 µM lay within 201 to 300%.

As for `CCC(=O)Nc1ccc2oc(-c3ccc(C(F)(F)F)cc3)nc2c1` [Example 124, N-(2-(4-(trifluoromethyl)phenyl)benzo[d]oxazol-5-yl)propionamide], the activity at 10 µM was under 200%.

Take `CCCC(=O)Nc1ccc2oc(-c3ccc(C(F)(F)F)cc3)nc2c1` [Example 125, N-(2-(4-(trifluoromethyl)phenyl)benzo[d]oxazol-5-yl)butyramide]: the activity at 10 µM was under 200%.

Consider `CCCCC(=O)Nc1ccc2oc(-c3ccc(C(F)(F)F)cc3)nc2c1` [Example 126, N-(2-(4-(trifluoromethyl)phenyl)benzo[d]oxazol-5-yl)pentanamide], for which the activity at 10 µM is under 200%.

For the molecule `CC(C)C(=O)Nc1ccc2oc(-c3ccc(C(F)(F)F)cc3)nc2c1` [Example 127, N-(2-(4-(trifluoromethyl)phenyl)benzo[d]oxazol-5-yl)isobutyramide], the activity at 10 µM was under 200%.

With `O=C(Nc1ccc2oc(-c3ccc(C(F)(F)F)cc3)nc2c1)c1ccco1` [Example 128, N-(2-(4-(trifluoromethyl)phenyl)benzo[d]oxazol-5-yl)furan-2-carboxamide], the activity at 10 µM was under 200%.

In the case of `CC(C)(C)c1ccc2oc(-c3ccccc3)nc2c1` [Example 129, 5-tert-butyl-2-phenylbenzo[d]oxazole], the activity at 10 µM is over 401%.

`O=[N+]([O-])c1ccc2nc(-c3ccccc3)oc2c1` [Example 130, 6-nitro-2-phenylbenzo[d]oxazole]: the activity at 10 µM lay in the range of 201 to 300%.

Regarding `CCN(CC)c1ccc(-c2nc3cc(Cl)ccc3o2)cc1` [Example 131, 4-(5-chlorobenzo[d]oxazol-2-yl)-N,N-diethylaniline], the activity at 10 µM was in the range of 301 to 400%.

Consider `CCN(CC)c1ccc(-c2nc3ccc(Cl)cc3o2)cc1` [Example 132, 4-(6-chlorobenzo[d]oxazol-2-yl)-N,N-diethylaniline], for which the activity at 10 µM was over 401%.

For the molecule `Nc1ccc2[nH]c(-c3ccccc3O)nc2c1` [Example 133, 2-(5-amino-1H-benzo[d]imidazol-2-yl)phenol], the activity at 10 µM was under 200%.

Take `COc1ccc(-c2nc3cc(NC(=O)c4ccncc4)ccc3o2)cc1` [Example 134, N-(2-(4-methoxyphenyl)benzo[d]oxazol-5-yl)isonicotinamide]: the activity at 10 µM is under 200%.

Regarding `COc1ccc(-c2nc3cc(NC(C)=O)ccc3o2)cc1` [Example 135, N-(2-(4-methoxyphenyl)benzo[d]oxazol-5-yl)acetamide], the activity at 10 µM lay in the range of 301 to 400%.

As for `CCC(=O)Nc1ccc2oc(-c3ccc(OC)cc3)nc2c1` [Example 136, N-(2-(4-methoxyphenyl)benzo[d]oxazol-5-yl)propionamide], the activity at 10 µM was in the range of 301 to 400%.

Take `CCCC(=O)Nc1ccc2oc(-c3ccc(OC)cc3)nc2c1` [Example 137, N-(2-(4-methoxyphenyl)benzo[d]oxazol-5-yl)butyramide]: the activity at 10 µM was in the range of 201 to 300%.

As for `CCCCC(=O)Nc1ccc2oc(-c3ccc(OC)cc3)nc2c1` [Example 138, N-(2-(4-methoxyphenyl)benzo[d]oxazol-5-yl)pentanamide], the activity at 10 µM was under 200%.

For the molecule `COc1ccc(-c2nc3cc(NC(=O)C(C)C)ccc3o2)cc1` [Example 139, N-(2-(4-methoxyphenyl)benzo[d]oxazol-5-yl)isobutyramide], the activity at 10 µM was 201 to 300%.

Turning to `COc1ccc(-c2nc3cc(NC(=O)c4ccco4)ccc3o2)cc1` [Example 140, N-(2-(4-methoxyphenyl)benzo[d]oxazol-5-yl)furan-2-carboxamide], the activity at 10 µM is under 200%.

Turning to `COc1ccc(-c2nc3cc(NC(=O)c4cccs4)ccc3o2)cc1` [Example 141, N-(2-(4-methoxyphenyl)benzo[d]oxazol-5-yl)thiophene-2-carboxamide], the activity at 10 µM is under 200%.

Regarding `CCN(CC)c1ccc(-c2nc3cc(C(C)(C)C)ccc3o2)cc1` [Example 142, 4-(5-tert-butylbenzo[d]oxazol-2-yl)-N,N-diethylaniline], the activity at 10 µM was 201 to 300%.

For the molecule `CCN(CC)c1ccc(-c2nc3ccccc3o2)cc1` [Example 143, 4-(benzo[d]oxazol-2-yl)-N,N-diethylaniline], the activity at 10 µM lay within 201 to 300%.

`CCN(CC)c1ccc(-c2nc3cc(S(=O)(=O)CC)ccc3o2)cc1` [Example 144, N,N-diethyl-4-(5-(ethylsulfonyl)benzo[d]oxazol-2-yl)aniline]: the activity at 10 µM is under 200%.

Consider `CCN(CC)c1ccc(-c2nc3cc(-c4ccccc4)ccc3o2)cc1` [Example 145, N,N-diethyl-4-(5-phenylbenzo[d]oxazol-2-yl)aniline], for which the activity at 10 µM is under 200%.

Take `CCN(CC)c1ccc(-c2nc3c(ccc4ccccc43)o2)cc1` [Example 146, N,N-diethyl-4-(naphtho[1,2-d]oxazol-2-yl)aniline]: the activity at 10 µM was 201 to 300%.

With `c1ccc(-c2nc3ccccc3o2)nc1` [Example 147, 2-(pyridin-2-yl)benzo[d]oxazole], the activity at 10 µM was under 200%.

Take `CCC(=O)Nc1ccc2nn(-c3ccc(Cl)cc3)nc2c1` [Example 148, N-(2-(4-chlorophenyl)-2H-benzo[d][1,2,3]triazol-5-yl)propionamide]: the activity at 10 µM is over 401%.

For `Nc1ccc2oc(-c3ccc(N4CCCC4)cc3)nc2c1` [Example 149, 2-(4-(pyrrolidin-1-yl)phenyl)benzo[d]oxazol-5-amine], the activity at 10 µM fell in the range of 201 to 300%.

Turning to `Nc1ccc2oc(-c3ccc(N4CCCCC4)cc3)nc2c1` [Example 150, 2-(4-(piperidin-1-yl)phenyl)benzo[d]oxazol-5-amine], the activity at 10 µM is 201 to 300%.

As to `CN1CCN(c2ccc(-c3nc4cc(N)ccc4o3)cc2)CC1` [Example 151, 2-(4-(4-methylpiperazin-1-yl)phenyl)benzo[d]oxazol-5-amine], the activity at 10 µM is 201 to 300%.

Turning to `CCN(CC)c1ccc(-c2nc3cc(C(=O)O)ccc3o2)cc1` [Example 152, 2-(4-(diethylamino)phenyl)benzo[d]oxazole-5-carboxylic acid], the activity at 10 µM was under 200%.

For `O=[N+]([O-])c1cnc2oc(-c3ccccc3)nc2c1` [Example 153, 6-nitro-2-phenyloxazolo[5,4-b]pyridine], the activity at 10 µM is under 200%.
